Experimental findings from US10793535B2, “Heterocyclic glutaminase inhibitors” (Calithera Biosciences, Inc., priority 2012, dated 2020) are described below.

Each structure is given as a SMILES string.

In the test the test system is P493-6 (myc "on") cells. The experiment in a line: Cell proliferation assay. It counts as cell-based. The following applies: P493-6, 72 h, read-out: Cell prolif P493 72 h IC50. As for the experimental part:
P493-6 (myc “on”) cells were maintained in growth media (RPMI-1640, 10% FBS, 2 mM glutamine, 100 units/ml Penicillin and 100 μg/ml streptomycin) at 37° C. with 5% CO2. For compound assay, P493-6 cells were plated in 96-well V-bottom plates on the day of compound addition in 50 μl of growth media at a cell density of 200,000 cells/ml (10,000 cells/well). Compounds were serially diluted in 100% DMSO at 200-times the final concentration. Compounds were diluted 100-fold into growth media and then 50 μl of this mixture was added to cell plates making the final concentration of DMSO 0.5%. Cells were incubated with compound for 72 hrs at 37° C. with 5% CO2 and analyzed for antiproliferative effects either by Cell Titer Glo (Promega) or FACS analysis using the Viacount (Millipore) kit on the Guava instrument.
With `O=C(Cc1cccc(OC(F)(F)F)c1)Nc1ccc(CCCCc2nnc(NC(=O)Cc3cccc(Cl)c3)s2)nn1` [Compound 680], the IC50 stood at 33 nM. The same measure for `CS(=O)(=O)c1cccc(CC(=O)Nc2nnc(CCCCc3ccc(NC(=O)Cc4cccc(OC(F)(F)F)c4)nn3)s2)c1` [Compound 681]: 19 nM; for `C[S+]([O-])c1cccc(CC(=O)Nc2nnc(CCCCc3ccc(NC(=O)Cc4cccc(OC(F)(F)F)c4)nn3)s2)c1` (stereo not shown) [Compound 682]: 17 nM. Consider `O=C(Cc1cccc(OC(F)(F)F)c1)Nc1ccc(CCCCc2nnc(NC(=O)Cc3ccc(Cl)nc3)s2)nn1` [Compound 683], for which the IC50 is 24 nM.

With `COCCC(C(=O)Nc1nnc(CCCCc2ccc(NC(=O)Cc3cccc(OC(F)(F)F)c3)nn2)s1)c1cccnc1` (stereo not shown) [Compound 684], the IC50 was determined as 42 nM. The same measure for `Cn1cc(CC(=O)Nc2nnc(CCCCc3ccc(NC(=O)Cc4cccc(OC(F)(F)F)c4)nn3)s2)cn1` [Compound 685]: 22 nM; for `Cc1c(CC(=O)Nc2nnc(CCCCc3ccc(NC(=O)Cc4cccc(OC(F)(F)F)c4)nn3)s2)cnn1C` [Compound 686]: 10 nM.

As to `Cn1ccc(CC(=O)Nc2nnc(CCCCc3ccc(NC(=O)Cc4cccc(OC(F)(F)F)c4)nn3)s2)n1` [Compound 687], the IC50 amounted to 11 nM.

Take `Cc1nc(CC(=O)Nc2nnc(CCCCc3ccc(NC(=O)Cc4cccc(OC(F)(F)F)c4)nn3)s2)c(C)s1` [Compound 688]: the IC50 amounted to 12 nM. The same measure for `O=C(Cc1cccc(OC(F)(F)F)c1)Nc1ccc(CCCCc2nnc(NC(=O)C(O)c3ccccc3)s2)nn1` (stereo not shown) [Compound 689]: 13 nM. The same measure for `O=C(Cc1cccc(OC(F)(F)F)c1)Nc1ccc(CCCCc2nnc(NC(=O)C(OC(=O)C(O)c3ccccc3)c3ccccc3)s2)nn1` (stereo not shown) [Compound 690]: 17 nM; for `N#Cc1cccc(CC(=O)Nc2nnc(CCCCc3ccc(NC(=O)Cc4cccc(OC(F)(F)F)c4)nn3)s2)c1` [Compound 692]: 20 nM. With `O=C(Cc1cccc(OC(F)(F)F)c1)Nc1ccc(CCCCc2nnc(NC(=O)Cn3cccn3)s2)nn1` [Compound 693], the IC50 turned out to be 70 nM. With `Cc1nn(C(=O)OC(C)(C)C)c(C)c1CC(=O)Nc1nnc(CCCCc2ccc(NC(=O)Cc3cccc(OC(F)(F)F)c3)nn2)s1` [Compound 694], the IC50 was 29 nM. In the case of `Cc1n[nH]c(C)c1CC(=O)Nc1nnc(CCCCc2ccc(NC(=O)Cc3cccc(OC(F)(F)F)c3)nn2)s1` [Compound 695], the IC50 was determined as 30 nM. The same measure for `CC(C)(C)OC(=O)n1cnc(CC(=O)Nc2nnc(CCCCc3ccc(NC(=O)Cc4cccc(OC(F)(F)F)c4)nn3)s2)c1` [Compound 696]: 34 nM; for `O=C(Cc1cccc(OC(F)(F)F)c1)Nc1ccc(CCCCc2nnc(NC(=O)Cc3c[nH]cn3)s2)nn1` [Compound 697]: 50 nM.

Take `Cc1ccn(CC(=O)Nc2nnc(CCCCc3ccc(NC(=O)Cc4cccc(OC(F)(F)F)c4)nn3)s2)n1` [Compound 698]: the IC50 is 98 nM. The same measure for `CC(C)c1cn(CC(=O)Nc2nnc(CCCCc3ccc(NC(=O)Cc4cccc(OC(F)(F)F)c4)nn3)s2)nn1` [Compound 699]: 120 nM; for `O=C(Cc1cccc(OC(F)(F)F)c1)Nc1ccc(CCCCc2nnc(NC(=O)Cn3cc(Cl)cn3)s2)nn1` [Compound 700]: 170 nM; for `Cc1cc(C)n(CC(=O)Nc2nnc(CCCCc3ccc(NC(=O)Cc4cccc(OC(F)(F)F)c4)nn3)s2)n1` [Compound 701]: 110 nM. Regarding `O=C(Cc1cccc(OC(F)(F)F)c1)Nc1ccc(CCCCc2nnc(NC(=O)Cn3c(CN4CCOCC4)nc4ccccc43)s2)nn1` [Compound 702], the IC50 was 310 nM. The same measure for `O=C(Cc1cccc(OC(F)(F)F)c1)Nc1ccc(CCCCc2nnc(NC(=O)CN3C[C@@H](O)CC3=O)s2)nn1` [Compound 704]: 880 nM; for `Nc1ccc(CCCCc2nnc(NC(=O)Cc3ccccn3)s2)nn1` [Compound 706]: 14000 nM; for `O=C(Cc1cccc(OC(F)(F)F)c1)Nc1ccc(CCCCc2nnc(NC(=O)CN3CCCCC3=O)s2)nn1` [Compound 707]: 85 nM.

The term IC50 denotes the concentration needed to halve the response being measured.
